# Source: patent publication US20040132643A1 (priority 2004, published 2004)
# What was measured:
# [1] = tested on: histone deacetylase; experiment: Histone acetylation by immunofluorescence microscopy (anti-acetylated histone H3) in thyroid carcinoma cells; format: cell-based, human; conditions: 1 ng/ml FR901228 for 72 hours
# Description: Histone acetylation was detected by immunofluorescence microscopy. In this experimental approach, fixed cells are exposed to a primary antibody that specifically binds to acetylated histones, and then exposed to an FITC-labeled secondary antibody that binds to the primary antibody.
# FTC 236 and SW-1736 cells were cultured as described in Example 1, and treated for 72 hours with 1 ng/ml FR901228. Control FTC 236 and SW-1736 received no FR901228, but were otherwise treated identically to the FR901228-exposed cells. After 72 hours, each culture was treated with trypsin, harvested, and subjected to low speed centrifugation to form a cell pellet. Cells from each pellet were placed on microscope slides and fixed with 95% ethanol/5% acetic acid for one minute at room temperature. After fixation, slides were washed twice with phosphate buffered saline (PBS) for 15 minutes, treated with 8% bovine serum albumin in PBS for one hour at room temperature, and washed 15 minutes in PBS.
# The fixed cells were then incubated overnight at 4° C. with 5 ug/ml anti-alpha acetylated histone H3 in 2% bovine serum albumin in PBS (antibody obtained from Upstate Biotechnology, Lake Placid N.Y.). Subsequently, cells were washed twice with PBS for five minutes at room temperature and then incubated with horse anti-rabbit FITC-conjugated secondary antibody (from Vector Labs, Burlingame Calif.). […]
# [2] = tested on: TG promoter-enhancer element; experiment: TG-luciferase reporter assay in transfected thyroid carcinoma cells; format: cell-based, human; conditions: 1 ng/ml FR901228; for enhancement in luciferase activity over that observed in untreated cells / enhancement over RLU observed in untreated cells: TG-luc
# [3] = tested on: KAT-4 cells; conditions: 1 ng/ml FR901228 for 72 hours
# Description: (§1) FTC 133 and FTC 236 cells were derived from cultures obtained from the primary tumor (FTC 133) and a nodal metastasis (FTC 236) of a human follicular thyroid carcinoma. […] Anaplastic thyroid carcinoma lines SW-1736 and KAT-4 were derived from primary cultures of human anaplastic thyroid carcinoma tumors.
# (§2) Each of these four cell lines was exposed to varying concentrations of FR901228 (0.01 ng/ml, 0.1 ng/ml, 1 ng/ml, 10 ng/ml) for 72 hours, following which cell viability was determined using the 3-[4,5-dimethylthiazol-2-yl]-2,5-diphenyl tetrazoliumbromide (MTT) assay, as described in Mosmann, J Immunol Methods 65:55-63, 1983, and Den Boer et al., Br. J. Haem. 105: 876-882, 2000. The MTT assay is a colorimetric assay of the loss of mitochondrial metabolic activity associated with cell death.
# [4] = tested on: FTC 133 cells; conditions: 1 ng/ml FR901228 for 72 hours
# Description: as §1, §2
# [5] = tested on: FTC 236 cells; conditions: 1 ng/ml FR901228 for 72 hours
# Description: as §1, §2
# [6] = tested on: SW-1736 cells; conditions: 1 ng/ml FR901228 for 72 hours
# Description: as §1, §2
# [7] = tested on: thyroglobulin; experiment: RT PCR and northern blot analysis of thyroglobulin expression in thyroid carcinoma cells; format: cell-based, human
# Description: (§3) RT PCR and Northern blot analysis are described in detail in a number of standard molecular biology reference works, for example Ausubel et al., Short Protocols in Molecular Biology, John Wiley & Sons, 1998.
# (§4) Total RNA was extracted from FR901228-treated and untreated thyroid carcinoma cells using RNA STAT-60 (Tel-Test, Inc.), at 24 hours, 48 hours, and 72 hours following addition of FR901228-containing or control solution to the cell cultures. RNA was also extracted from normal thyroid cells for purposes of comparison. The extracted RNA was used without further modification for northern blots. For RT PCR, the extracted RNA was reverse transcribed into cDNA using standard techniques.
# Oligonucleotide primers used for PCR analysis of human thyroglobulin expression were: […]
# Using these primers, the presence of human thyroglobulin cDNA template is reflected by a 219 bp PCR product.
# [8] = tested on: thymidine kinase (TK) promoter enhancer; experiment: TK-luciferase reporter assay (positive control) in transfected thyroid carcinoma cells; format: cell-based, human; conditions: 1 ng/ml FR901228
# Excerpt: As a positive control, FTC 236 and SW-1736 cells were transfected with a reporter plasmid encoding luciferase operably linked to the thymidine kinase (TK) promoter enhancer. The TK promoter enhancer is a constitutively active promoter element, meaning that it is not thyroid-specific and is fully active in all cell types.
# For transfection, FTC 236 and SW-1736 cells were exposed to a transfection mixture of 0.5 micrograms of plasmid DNA, 4.5 microliters TransFast transfection reagent (Promega, Madison Wis.) and 200 microliters of RPMI medium. Plasmid DNA was either a TG-luciferase (TG-luc) construct or a TK-luciferase (TK-luc) construct. All transfections were performed in triplicate.
# After incubating cells for one hour with the transfection mixture, cells were cultured in the presence or absence of 1 ng/ml FR901228 for two days. Cells were then harvested and lysed, and an extract of cellular protein was obtained. Total protein concentration in the extract was determined using the Bio-Rad protein assay system (Bio-Rad, Richmond Calif.). Luciferase activity was determined using the Luciferase Assay System (Promega, Madison Wis.), and was normalized to total protein concentration. […]
# [9] = tested on: Na+/I- symporter; experiment: 125I iodine accumulation study in thyroid carcinoma cells; format: cell-based, human
# Description: To evaluate the function of the Na^+/I^− symporter, iodine accumulation studies were performed. FTC 133, FTC 236 SW-1736 and KAT-4 cells were treated with 1 ng/ml FR901228 for two or three days, or left untreated. Cells were then incubated in 0.5 ml of Hanks' Balanced Salt Solution (HBSS; Life Technologies, Inc., Eggenstein, Germany) containing approximately 2 μCi carrier-free Na^125I (DuPont NEN, Boston, Mass.) and 30 μM NaI] ^125I for 10 minutes. For perchlorate studies NaCIO4 was added as a 100X solution in HBSS, to a final concentration of 30 and 100 μM, immediately after the addition of radiolabeled iodine. Excess radiolabeled iodine was then removed, and the amount of ^125I accumulated in the cells was determined by gamma counting.
# [10] = tested on: Na+/I- symporter; experiment: RT PCR and northern blot analysis of Na+/I- symporter expression in thyroid carcinoma cells; format: cell-based, human
# Description: as §3, §4
# Oligonucleotide primers used for PCR analysis of human Na^+/I^− symporter expression were:
# Using these primers, the presence of human Na^+/I^− symporter cDNA template is reflected by a 303 bp PCR product.
# [11] = ATC cells, 72 hours of FR901228 exposure
# [12] = FTC cells, 72 hours of FR901228
# [13] = FTC cells, RT PCR and northern blot
smiles,measurement,setting,value
C/C=C1\NC(=O)[C@H]2CSSCC/C=C/[C@H](CC(=O)N[C@H](C(C)C)C(=O)N2)OC(=O)[C@H](C(C)C)NC1=O [FR901228],histone acetylation (nuclear fluorescence) relative to the control cells,[1]; FTC 236 cells,marked increase
same,histone acetylation (nuclear fluorescence) relative to the control cells,[1]; SW-1736 cells,marked increase
same,"relative luciferase units (RLU) in TG-luc transfected cells, TK luc = 100%",[2]; FTC 133 cells,about 1000%
same,enhancement in luciferase activity over that observed in untreated cells,[2]; FTC 133 cells,greater than tenfold
same,"relative luciferase units (RLU) in TG-luc transfected cells, TK luc = 100%",[2]; FTC 236 cells,about 1000%
same,enhancement in luciferase activity over that observed in untreated cells,[2]; FTC 236 cells,greater than tenfold
same,"relative luciferase units (RLU) in TG-luc transfected cells, TK luc = 100%",[2]; KAT-4 cells,400-500%
same,enhancement over RLU observed in untreated cells,[2]; KAT-4 cells,greater than ten-fold
same,"relative luciferase units (RLU) in TG-luc transfected cells, TK luc = 100%",[2]; SW-1736 cells,400-500%
same,enhancement over RLU observed in untreated cells,[2]; SW-1736 cells,greater than ten-fold
same,"cytotoxicity (cell viability, MTT assay)",[3],not significantly cytotoxic
same,"cytotoxicity (cell viability, MTT assay)",[4],not significantly cytotoxic
same,"cytotoxicity (cell viability, MTT assay)",[5],not significantly cytotoxic
same,"cytotoxicity (cell viability, MTT assay)",[6],not significantly cytotoxic
same,time after FR901228 at which increased TG expression was first observed,[7]; ATC cells,48 h
same,TG expression after 72 hours,[7]; [11],further increases
same,TG expression after 72 hours,[7]; [12],further increases
same,time following addition of FR901228 at which increased TG expression was detected,[7]; [13],≤ 24 h
same,effect on luciferase activity in TK luc-transfected cells,[8],no effect
same,iodine (125I) accumulation,"[9]; four cell lines (FTC 133, FTC 236, SW-1736, KAT-4), 1 ng/ml FR901228, two and three days",Marked increases
same,time after FR901228 at which increased Na+/I- symporter expression was first observed,[10]; ATC cells,48 h
same,Na+/I- symporter expression after 72 hours,[10]; [11],further increases
same,Na+/I- symporter expression after 72 hours,[10]; [12],further increases
same,time following addition of FR901228 at which increased Na+/I- symporter expression was detected,[10]; [13],≤ 24 h
[O-][Cl+3]([O-])([O-])O [sodium perchlorate],inhibition of iodine (125I) accumulation,"[9]; FR901228-treated thyroid carcinoma cells, perchlorate 30 and 100 μM",inhibited in a dose-dependent manner
